Laboratory results taken from patent publication US20230024302A1, “2,3,5-TRISUBSTITUTED PYRAZOLO[1,5-A]PYRIMIDINE COMPOUNDS” (Arcus Biosciences, Inc., priority 2019, published 2023).
Where two headings read alike, the source gives them in different places.

Tests used:
PI3Kγ = molecular target: T1, PI3Kγ (Homo sapiens, UniProt P48736); assay: PI3Kγ cellular assay in THP-1 cells (AKT pS473 AlphaLISA); type: cell-based
T1 construct: host or cells: THP-1
Method in brief: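 Endogenous AKT S473 phosphorylation, detected by AlphaLISA in lysates, serves as the PI3Kγ activity read-out in stimulated, serum-starved THP-1 cells (1.8×10^5/well).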

PI3Kγ (p120γ) = molecular target: T2, PI3Kγ (p120γ) (Homo sapiens, UniProt P48736); assay: Inhibition of PI3K kinase activity (ADP Glo), PI3Kγ; conditions: read-out: biochemical potency (PI3Kγ IC50)
T2 construct: purchased Promega V1761
T2 sequence (P48736 whole entry): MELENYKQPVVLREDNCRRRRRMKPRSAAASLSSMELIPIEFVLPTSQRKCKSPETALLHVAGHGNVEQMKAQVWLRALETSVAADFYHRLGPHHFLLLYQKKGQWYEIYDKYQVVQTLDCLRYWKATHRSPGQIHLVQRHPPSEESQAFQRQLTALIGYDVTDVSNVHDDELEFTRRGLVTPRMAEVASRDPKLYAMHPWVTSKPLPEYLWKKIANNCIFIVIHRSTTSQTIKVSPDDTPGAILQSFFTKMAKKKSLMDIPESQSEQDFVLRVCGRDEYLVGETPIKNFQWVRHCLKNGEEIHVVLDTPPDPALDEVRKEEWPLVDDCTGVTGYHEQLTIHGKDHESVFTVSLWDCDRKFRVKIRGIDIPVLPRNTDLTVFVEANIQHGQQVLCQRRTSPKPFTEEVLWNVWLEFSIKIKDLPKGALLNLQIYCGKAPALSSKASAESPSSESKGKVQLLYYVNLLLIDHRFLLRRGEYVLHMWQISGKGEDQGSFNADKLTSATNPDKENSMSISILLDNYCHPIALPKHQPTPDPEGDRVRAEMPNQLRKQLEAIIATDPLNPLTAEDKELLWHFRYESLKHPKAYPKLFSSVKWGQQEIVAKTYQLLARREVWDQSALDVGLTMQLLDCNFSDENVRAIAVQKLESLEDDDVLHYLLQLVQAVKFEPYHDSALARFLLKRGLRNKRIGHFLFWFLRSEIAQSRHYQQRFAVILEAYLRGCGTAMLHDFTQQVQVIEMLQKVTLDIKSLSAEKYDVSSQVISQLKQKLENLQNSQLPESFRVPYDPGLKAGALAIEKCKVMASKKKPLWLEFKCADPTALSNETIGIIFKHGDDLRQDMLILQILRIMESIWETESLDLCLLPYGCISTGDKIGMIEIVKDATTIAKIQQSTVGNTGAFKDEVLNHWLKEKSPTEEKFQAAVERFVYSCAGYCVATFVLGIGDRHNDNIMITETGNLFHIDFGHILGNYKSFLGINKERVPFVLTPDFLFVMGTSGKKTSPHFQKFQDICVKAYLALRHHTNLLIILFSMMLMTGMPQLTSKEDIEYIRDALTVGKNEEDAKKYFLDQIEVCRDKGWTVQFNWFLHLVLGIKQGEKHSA
Method in brief: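 IC50 values come from a 4-parameter nonlinear fit of ADP-Glo luminescence, which measures ADP produced as PIP2 is phosphorylated to PIP3. The p120γ enzyme (2× stock 8 nM) sat with compound 1 h at rt before substrate (2× stocks: 50 μM ATP, 0.1 mg/ml PIP2) was added. Phosphorylation then proceeded 60 min at rt.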

[1] = Table 2, rhMCP-1 stimulated AKT pS473, read-out: cellular potency (PI3Kγ IC50)
[2] = Table 3, rhMCP-1 stimulated AKT pS473, read-out: cellular potency (PI3Kγ IC50)

T1 sequence (P48736 whole entry): as above

| SMILES | IC50 (PI3Kγ; [1]) | IC50 (PI3Kγ (p120γ); Table 2, p120γ) | IC50 (PI3Kγ; [2]) | IC50 (PI3Kγ (p120γ); Table 3, p120γ) |
| --- | --- | --- | --- | --- |
| Cc1cc(-c2ccn3nc(N)c(C(=O)Nc4ccccc4)c3n2)cc2c1C(=O)N([C@@H](C)C1CC1)C2 [Example 298] | > 1000 nM | < 100 nM | – | – |
| Cc1cc(-c2ccn3nc(N)c(C(=O)Nc4ccc(Cl)cc4)c3n2)cc2c1C(=O)N([C@@H](C)C1CC1)C2 [Example 299] | > 1000 nM | < 100 nM | – | – |
| Cc1csc(NC(=O)c2c(N)nn3ccc(-c4cc(C)c5c(c4)CN([C@@H](C)C4CC4)C5=O)nc23)n1 [Example 300] | > 1000 nM | < 100 nM | – | – |
| Cc1cc(-c2ccn3nc(N)c(C(=O)NC4CC4)c3n2)cc2c1C(=O)N([C@@H](C1CC1)C(F)(F)F)C2 [Example 301] | 100 to 1000 nM | < 100 nM | – | – |
| CC[C@H](C)N1Cc2cc(-c3ccn4nc(N)c(C(=O)NC5CC5)c4n3)cc(C)c2C1=O [Example 302] | 100 to 1000 nM | < 100 nM | – | – |
| Cc1cc(-c2ccn3nc(N)c(C(=O)NC4CC4)c3n2)cc2c1C(=O)N(C1CC1)C2 [Example 303] | 100 to 1000 nM | < 100 nM | – | – |
| Cc1cc(-c2ccn3nc(N)c(C(=O)NC4CC4)c3n2)cc2c1C(=O)N(C(C)C)C2 [Example 304] | 100 to 1000 nM | < 100 nM | – | – |
| CCN1Cc2cc(-c3ccn4nc(N)c(C(=O)NC5CC5)c4n3)cc(C)c2C1=O [Example 305] | 100 to 1000 nM | < 100 nM | – | – |
| CC[C@@H](C)N1Cc2cc(-c3ccn4nc(N)c(C(=O)NC5CC5)c4n3)cc(C)c2C1=O [Example 306] | 100 to 1000 nM | < 100 nM | – | – |
| Cc1cc(-c2ccn3nc(N)c(C(=O)NC4CC4)c3n2)cc2c1C(=O)N(CC1CC1)C2 [Example 307] | 100 to 1000 nM | < 100 nM | – | – |
| CC[C@H](CO)N1Cc2cc(-c3ccn4nc(N)c(C(=O)NC5CC5)c4n3)cc(C)c2C1=O [Example 308] | 100 to 1000 nM | < 100 nM | – | – |
| CC[C@@H](CO)N1Cc2cc(-c3ccn4nc(N)c(C(=O)NC5CC5)c4n3)cc(C)c2C1=O [Example 309] | 100 to 1000 nM | < 100 nM | – | – |
| Cc1cc(-c2ccn3nc(N)c(C(=O)NC4CC4)c3n2)cc2c1C(=O)N([C@H](CO)C1CC1)C2 [Example 310] | 100 to 1000 nM | < 100 nM | – | – |
| Cc1cc(-c2ccn3nc(N)c(C(=O)NC4CC4)c3n2)cc2c1C(=O)N([C@@H](CO)C1CC1)C2 [Example 311] | 100 to 1000 nM | < 100 nM | – | – |
| Cc1cc(-c2ccn3nc(N)c(C(=O)N[C@@H](CO)C4CC4)c3n2)cc2c1C(=O)N(C(C)(C)CO)C2 [Example 312] | 100 to 1000 nM | < 100 nM | – | – |
| Cc1cc(-c2ccn3nc(N)c(C(=O)N[C@@H](C)c4ccccc4F)c3n2)cc2c1C(=O)N(C(C)(C)CO)C2 [Example 313] | 100 to 1000 nM | < 100 nM | – | – |
| Cc1cc(-c2ccn3nc(N)c(C(=O)NC4(C)COC4)c3n2)cc2c1C(=O)N(C(C)(C)CO)C2 [Example 314] | 100 to 1000 nM | < 100 nM | – | – |
| Cc1cc(-c2ccn3nc(N)c(C(=O)NC4COC4)c3n2)cc2c1C(=O)N(C(C)(C)CO)C2 [Example 315] | 100 to 1000 nM | < 100 nM | – | – |
| Cc1cc(-c2ccn3nc(N)c(C(=O)NC4CC4)c3n2)cc2c1C(=O)N(C(C)(C)CO)C2 [Example 316] | 100 to 1000 nM | < 100 nM | – | – |
| Cc1cc(-c2ccn3nc(N)c(C(=O)N[C@H](C)c4ccccc4F)c3n2)cc2c1C(=O)N(C(C)(C)CO)C2 [Example 317] | > 1000 nM | < 100 nM | – | – |
| Cc1cc(-c2ccn3nc(N)c(C(=O)NC4(C)COC4)c3n2)cc2c1C(=O)N(CC(C)(C)O)C2 [Example 318] | 100 to 1000 nM | < 100 nM | – | – |
| Cc1cc(-c2ccn3nc(N)c(C(=O)NC4CC4)c3n2)cc2c1C(=O)N(CC(C)(C)O)C2 [Example 319] | 100 to 1000 nM | < 100 nM | – | – |
| Cc1cc(-c2ccn3nc(N)c(C(=O)NC4COC4)c3n2)cc2c1C(=O)N(CC(C)(C)O)C2 [Example 320] | 100 to 1000 nM | < 100 nM | – | – |
| Cc1cc(-c2ccn3nc(N)c(C(=O)N[C@@H](CO)C4CC4)c3n2)cc2c1C(=O)N(CC(C)(C)O)C2 [Example 321] | 100 to 1000 nM | < 100 nM | – | – |
| Cc1cc(-c2ccn3nc(N)c(C(=O)NC4CC4)c3n2)cc2c1C(=O)N([C@H]1CC[C@@H](O)C1)C2 [Example 322] | 100 to 1000 nM | < 100 nM | – | – |
| Cc1cc(-c2ccn3nc(N)c(C(=O)NC4CC4)c3n2)cc2c1C(=O)N([C@H]1CC[C@H](O)C1)C2 [Example 323] | 100 to 1000 nM | < 100 nM | – | – |
| Cc1cc(-c2ccn3nc(N)c(C(=O)NC4CC4)c3n2)cc2c1C(=O)N([C@@H]1CCC[C@H](O)C1)C2 [Example 324] | 100 to 1000 nM | < 100 nM | – | – |

Further lines, results first:

| IC50 (PI3Kγ; [1]) | IC50 (PI3Kγ (p120γ); Table 2, p120γ) | IC50 (PI3Kγ; [2]) | IC50 (PI3Kγ (p120γ); Table 3, p120γ) | SMILES |
| --- | --- | --- | --- | --- |
| > 1000 nM | < 100 nM | – | – | Cc1cc(-c2ccn3nc(N)c(C(=O)NC(C)CO)c3n2)cc2c1C(=O)N([C@@H]1CCC[C@@H](O)C1)C2 (stereo partly drawn) [Example 325] |
| > 1000 nM | < 100 nM | – | – | Cc1cc(-c2ccn3nc(N)c(C(=O)NC(C)CO)c3n2)cc2c1C(=O)N([C@@H]1CCC[C@H](O)C1)C2 (stereo partly drawn) [Example 326] |
| 100 to 1000 nM | < 100 nM | – | – | Cc1cc(-c2ccn3nc(N)c(C(=O)NC4CC4)c3n2)cc2c1C(=O)N([C@H]1CCC[C@H](O)C1)C2 [Example 327] |
| 100 to 1000 nM | < 100 nM | – | – | Cc1cc(-c2ccn3nc(N)c(C(=O)NC4CC4)c3n2)cc2c1C(=O)N([C@@H]1CCC[C@@H](O)C1)C2 [Example 328] |
| > 1000 nM | < 100 nM | – | – | Cc1cc(-c2ccn3nc(N)c(C(=O)NC(C)CO)c3n2)cc2c1C(=O)N([C@H]1CCC[C@H](O)C1)C2 (stereo partly drawn) [Example 329] |
| > 1000 nM | < 100 nM | – | – | Cc1cc(-c2ccn3nc(N)c(C(=O)NC(C)CO)c3n2)cc2c1C(=O)N([C@H](C)c1ccncc1)C2 (stereo partly drawn) [Example 330] |
| > 1000 nM | < 100 nM | – | – | Cc1cc(-c2ccn3nc(N)c(C(=O)NC4CC4)c3n2)cc2c1C(=O)N([C@H](C)c1ccncc1)C2 [Example 331] |
| > 1000 nM | < 100 nM | – | – | Cc1cc(-c2ccn3nc(N)c(C(=O)NC(C)CO)c3n2)cc2c1C(=O)N([C@H](C)c1cccnc1)C2 (stereo partly drawn) [Example 332] |
| > 1000 nM | < 100 nM | – | – | Cc1cc(-c2ccn3nc(N)c(C(=O)NC4CC4)c3n2)cc2c1C(=O)N([C@H](C)c1cccnc1)C2 [Example 333] |
| – | – | 100 to 1000 nM | < 100 nM | CC(=O)N1CC(NC(=O)c2c(N)nn3ccc(-c4cc5c(c(C(F)(F)F)c4)C(=O)N([C@@H](C)C4CC4)C5)nc23)C1 [Example 334] |
| – | – | 100 to 1000 nM | < 100 nM | C[C@@H](C1CC1)N1Cc2cc(-c3ccn4nc(N)c(C(=O)NC(C)(C)CO)c4n3)cc(C(F)(F)F)c2C1=O [Example 335] |
| – | – | 100 to 1000 nM | < 100 nM | C[C@@H](C1CC1)N1Cc2cc(-c3ccn4nc(N)c(C(=O)NCCCS(C)(=O)=O)c4n3)cc(C(F)(F)F)c2C1=O [Example 336] |
| – | – | 100 to 1000 nM | < 100 nM | C[C@@H](C1CC1)N1Cc2cc(-c3ccn4nc(N)c(C(=O)NCCS(C)(=O)=O)c4n3)cc(C(F)(F)F)c2C1=O [Example 337] |
| – | – | 100 to 1000 nM | < 100 nM | C[C@@H](C1CC1)N1Cc2cc(-c3ccn4nc(N)c(C(=O)NC5(CO)COC5)c4n3)cc(C(F)(F)F)c2C1=O [Example 338] |
| – | – | 100 to 1000 nM | < 100 nM | COC[C@@H](C)NC(=O)c1c(N)nn2ccc(-c3cc4c(c(C(F)(F)F)c3)C(=O)N([C@@H](C)C3CC3)C4)nc12 [Example 339] |
